{"source": "patent US9758412B2", "about": "“Device for purifying liquid wastewater, and method for cleaning liquid wastewater using said device” (CENTRE NATIONAL DE LA RECHERCHE SCIENTIFIQUE (C.N.R.S.), priority 2012, dated 2017)", "key": {"Xenopus larvae [1]": {"tested_on": "Xenopus larvae", "conditions": "stage 50 to 54, devices: diuron-spiked tank water after 10 days of circulation, T(+): cyclophosphamide 20 mg/L in river water", "method": "The mass of Tubifex tubifex worms is of the order of 500 mg (fresh weight) per sanitizing device and is representative of the average density of these oligochaete worms in the natural environment (56 000 oligochaete worms/m^2 of river).\nThe acute toxicity of the sanitized water is measured by incubating Xenopus larvae, selected at a stage of development of 50 to 54 […], for a period of 12 days with said sanitized water on larvae. This measurement permits observation of the signs of intoxication of the larvae induced by exposure to the water obtained at the outlet of the sanitizing device at the end of treatment."}, "Xenopus larvae [2]": {"tested_on": "Xenopus larvae", "conditions": "cyclophosphamide 20 mg/L in river water; compared with negative control T(−) and sanitized water D8"}}}
{"compound": "O=P1(N(CCCl)CCCl)NCCCO1", "note": "(stereo not drawn) [T(+), cyclophosphamide]", "values": [{"measurement": "Toxicity, 1 to 5 days", "setting": "Xenopus larvae [1]", "value": "Lethal"}, {"measurement": "Toxicity, 5 to 12 days", "setting": "Xenopus larvae [1]", "value": "Lethal"}, {"measurement": "Genotoxicity (induction of micronuclei)", "setting": "Xenopus larvae [2]", "value": "confirmed genotoxicity"}]}
